Source: patent US9771334B2, “Triketone compound and preparation method and use thereof” (SHANDONG CYNDA CHEMICAL CO., LTD., priority 2013, dated 2017)

Experiments:
Assay in all cases: Herbicidal activity, pot culture method (primary and secondary screening test)
Assay type in all cases: in vivo
Conditions in all cases: primary screening, pot culture, 150 g/ha, sprayed at 3-leaf stage, result 15 days later
[1] = tested on: abutilon theophrasti
Outline: (§1)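 Inhibition ratio (%) was scored 15 days after post-emergence spraying of 3-leaf-stage weeds grown in pots of soil:seedling matrix (1:2). Dose was 150 g/ha from a 0.2 g/L DMF/water solution applied by spray tower. The secondary screening used the same method at a reduced dose.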

[2] = tested on: amaranthus retroflexus
Outline: as §1

[3] = tested on: digitaria sanguinalis
Outline: as §1

[4] = tested on: echinochloa crusgalli
Outline: as §1

[5] = tested on: eclipta prostrata
Outline: as §1

[6] = tested on: setaria viridis
Outline: as §1

SMILES: CC1CC(=O)C(C(=O)c2ccc3c(c2)c(=O)n(-c2ccc(Br)cc2)c(=O)n3C)=C(O)C1 (stereo not drawn) [Compound 90]
- herbicidal activity inhibition ratio (%), Abutilon theophrasti [1]: 92.5%
- herbicidal activity inhibition ratio (%), Amaranthus retroflexus [2]: 20%
- herbicidal activity inhibition ratio (%), Digitaria sanguinalis [3]: 93%
- herbicidal activity inhibition ratio (%), Echinochloa crusgalli [4]: 90%
- herbicidal activity inhibition ratio (%), Eclipta prostrata [5]: 83%
- herbicidal activity inhibition ratio (%), Setaria viridis [6]: 85%

SMILES: Cn1c(=O)n(-c2c(Cl)cccc2Cl)c(=O)c2cc(C(=O)C3=C(O)CCCC3=O)ccc21 [Compound 32]
- herbicidal activity inhibition ratio (%), Abutilon theophrasti [1]: 80%
- herbicidal activity inhibition ratio (%), Amaranthus retroflexus [2]: 85%
- herbicidal activity inhibition ratio (%), Digitaria sanguinalis [3]: 80%
- herbicidal activity inhibition ratio (%), Echinochloa crusgalli [4]: 80%
- herbicidal activity inhibition ratio (%), Eclipta prostrata [5]: 50%
- herbicidal activity inhibition ratio (%), Setaria viridis [6]: 40%

SMILES: COc1ccccc1-n1c(=O)c2cc(C(=O)C3=C(O)CCCC3=O)ccc2n(C)c1=O [Compound 29]
- herbicidal activity inhibition ratio (%), Abutilon theophrasti [1]: 90%
- herbicidal activity inhibition ratio (%), Amaranthus retroflexus [2]: 100%
- herbicidal activity inhibition ratio (%), Digitaria sanguinalis [3]: 88%
- herbicidal activity inhibition ratio (%), Echinochloa crusgalli [4]: 90%
- herbicidal activity inhibition ratio (%), Eclipta prostrata [5]: 65%
- herbicidal activity inhibition ratio (%), Setaria viridis [6]: 60%

SMILES: Cn1c(=O)n(-c2ccc(Br)cc2)c(=O)c2cc(C(=O)C3=C(O)CCCC3=O)ccc21 [Compound 25]
- herbicidal activity inhibition ratio (%), Abutilon theophrasti [1]: 80%
- herbicidal activity inhibition ratio (%), Amaranthus retroflexus [2]: 95%
- herbicidal activity inhibition ratio (%), Digitaria sanguinalis [3]: 80%
- herbicidal activity inhibition ratio (%), Echinochloa crusgalli [4]: 80%
- herbicidal activity inhibition ratio (%), Eclipta prostrata [5]: 83%
- herbicidal activity inhibition ratio (%), Setaria viridis [6]: 35%

SMILES: Cn1c(=O)n(-c2cccc(C(F)(F)F)c2)c(=O)c2cc(C(=O)C3=C(O)CCCC3=O)ccc21 [Compound 52]
- herbicidal activity inhibition ratio (%), Abutilon theophrasti [1]: 55%
- herbicidal activity inhibition ratio (%), Amaranthus retroflexus [2]: 98%
- herbicidal activity inhibition ratio (%), Digitaria sanguinalis [3]: 50%
- herbicidal activity inhibition ratio (%), Echinochloa crusgalli [4]: 85%
- herbicidal activity inhibition ratio (%), Eclipta prostrata [5]: 75%
- herbicidal activity inhibition ratio (%), Setaria viridis [6]: 80%

SMILES: COc1cccc(-n2c(=O)c3cc(C(=O)C4=C(O)CCCC4=O)ccc3n(C)c2=O)c1 [Compound 55]
- herbicidal activity inhibition ratio (%), Abutilon theophrasti [1]: 100%
- herbicidal activity inhibition ratio (%), Amaranthus retroflexus [2]: 95%
- herbicidal activity inhibition ratio (%), Digitaria sanguinalis [3]: 60%
- herbicidal activity inhibition ratio (%), Echinochloa crusgalli [4]: 93%
- herbicidal activity inhibition ratio (%), Eclipta prostrata [5]: 68%
- herbicidal activity inhibition ratio (%), Setaria viridis [6]: 25%

SMILES: Cc1cccc(-n2c(=O)c3cc(C(=O)C4=C(O)CC(C)(C)CC4=O)ccc3n(C)c2=O)c1 [Compound 18]
- herbicidal activity inhibition ratio (%), Abutilon theophrasti [1]: 75%
- herbicidal activity inhibition ratio (%), Amaranthus retroflexus [2]: 100%
- herbicidal activity inhibition ratio (%), Digitaria sanguinalis [3]: 90%
- herbicidal activity inhibition ratio (%), Echinochloa crusgalli [4]: 70%
- herbicidal activity inhibition ratio (%), Eclipta prostrata [5]: 75%
- herbicidal activity inhibition ratio (%), Setaria viridis [6]: 85%

SMILES: Cc1ccccc1-n1c(=O)c2cc(C(=O)C3=C(O)CC(C)(C)CC3=O)ccc2n(Cc2ccccc2)c1=O [Compound 80]
- herbicidal activity inhibition ratio (%), Abutilon theophrasti [1]: 0%
- herbicidal activity inhibition ratio (%), Amaranthus retroflexus [2]: 0%
- herbicidal activity inhibition ratio (%), Digitaria sanguinalis [3]: 0%
- herbicidal activity inhibition ratio (%), Echinochloa crusgalli [4]: 0%
- herbicidal activity inhibition ratio (%), Eclipta prostrata [5]: 0%
- herbicidal activity inhibition ratio (%), Setaria viridis [6]: 10%

SMILES: CCn1c(=O)n(-c2ccc(Cl)cc2)c(=O)c2cc(C(=O)C3=C(O)CCCC3=O)ccc21 [Compound 43]
- herbicidal activity inhibition ratio (%), Abutilon theophrasti [1]: 65%
- herbicidal activity inhibition ratio (%), Amaranthus retroflexus [2]: 98%
- herbicidal activity inhibition ratio (%), Digitaria sanguinalis [3]: 60%
- herbicidal activity inhibition ratio (%), Echinochloa crusgalli [4]: 80%
- herbicidal activity inhibition ratio (%), Eclipta prostrata [5]: 83%
- herbicidal activity inhibition ratio (%), Setaria viridis [6]: 50%

SMILES: Cc1ccccc1-n1c(=O)[nH]c2ccc(C(=O)C3=C(O)CCCC3=O)cc2c1=O [Compound 68]
- herbicidal activity inhibition ratio (%), Abutilon theophrasti [1]: 15%
- herbicidal activity inhibition ratio (%), Amaranthus retroflexus [2]: 0%
- herbicidal activity inhibition ratio (%), Digitaria sanguinalis [3]: 0%
- herbicidal activity inhibition ratio (%), Echinochloa crusgalli [4]: 0%
- herbicidal activity inhibition ratio (%), Eclipta prostrata [5]: 0%
- herbicidal activity inhibition ratio (%), Setaria viridis [6]: 10%

SMILES: Cn1c(=O)n(-c2ccc(OC(F)(F)F)cc2)c(=O)c2cc(C(=O)C3=C(O)CCCC3=O)ccc21 [Compound 50]
- herbicidal activity inhibition ratio (%), Abutilon theophrasti [1]: 50%
- herbicidal activity inhibition ratio (%), Amaranthus retroflexus [2]: 95%
- herbicidal activity inhibition ratio (%), Digitaria sanguinalis [3]: 60%
- herbicidal activity inhibition ratio (%), Echinochloa crusgalli [4]: 78%
- herbicidal activity inhibition ratio (%), Eclipta prostrata [5]: 80%
- herbicidal activity inhibition ratio (%), Setaria viridis [6]: 50%

SMILES: CC(C)c1cccc(C(C)C)c1-n1c(=O)c2cc(C(=O)C3=C(O)CCCC3=O)ccc2n(C)c1=O [Compound 46]
- herbicidal activity inhibition ratio (%), Abutilon theophrasti [1]: 35%
- herbicidal activity inhibition ratio (%), Amaranthus retroflexus [2]: 100%
- herbicidal activity inhibition ratio (%), Digitaria sanguinalis [3]: 55%
- herbicidal activity inhibition ratio (%), Echinochloa crusgalli [4]: 60%
- herbicidal activity inhibition ratio (%), Eclipta prostrata [5]: 70%
- herbicidal activity inhibition ratio (%), Setaria viridis [6]: 20%

SMILES: Cn1c(=O)n(-c2ccc(Cl)cc2Cl)c(=O)c2cc(C(=O)C3=C(O)CC(C)(C)CC3=O)ccc21 [Compound 63]
- herbicidal activity inhibition ratio (%), Abutilon theophrasti [1]: 100%
- herbicidal activity inhibition ratio (%), Amaranthus retroflexus [2]: 30%
- herbicidal activity inhibition ratio (%), Digitaria sanguinalis [3]: 20%
- herbicidal activity inhibition ratio (%), Echinochloa crusgalli [4]: 25%
- herbicidal activity inhibition ratio (%), Eclipta prostrata [5]: 50%
- herbicidal activity inhibition ratio (%), Setaria viridis [6]: 30%

SMILES: Cn1c(=O)n(-c2ccc(Cl)cc2)c(=O)c2cc(C(=O)C3=C(O)CC(C)(C)CC3=O)ccc21 [Compound 2]
- herbicidal activity inhibition ratio (%), Abutilon theophrasti [1]: 100%
- herbicidal activity inhibition ratio (%), Amaranthus retroflexus [2]: 95%
- herbicidal activity inhibition ratio (%), Digitaria sanguinalis [3]: 90%
- herbicidal activity inhibition ratio (%), Echinochloa crusgalli [4]: 80%
- herbicidal activity inhibition ratio (%), Eclipta prostrata [5]: 75%
- herbicidal activity inhibition ratio (%), Setaria viridis [6]: 80%

SMILES: Cc1ccc(Cl)cc1-n1c(=O)c2cc(C(=O)C3=C(O)CC(C)(C)CC3=O)ccc2n(C)c1=O [Compound 37]
- herbicidal activity inhibition ratio (%), Abutilon theophrasti [1]: 65%
- herbicidal activity inhibition ratio (%), Amaranthus retroflexus [2]: 95%
- herbicidal activity inhibition ratio (%), Digitaria sanguinalis [3]: 83%
- herbicidal activity inhibition ratio (%), Echinochloa crusgalli [4]: 80%
- herbicidal activity inhibition ratio (%), Eclipta prostrata [5]: 80%
- herbicidal activity inhibition ratio (%), Setaria viridis [6]: 40%

SMILES: Cn1c(=O)n(-c2cccc(F)c2)c(=O)c2cc(C(=O)C3=C(O)CCCC3=O)ccc21 [Compound 10]
- herbicidal activity inhibition ratio (%), Abutilon theophrasti [1]: 100%
- herbicidal activity inhibition ratio (%), Amaranthus retroflexus [2]: 85%
- herbicidal activity inhibition ratio (%), Digitaria sanguinalis [3]: 75%
- herbicidal activity inhibition ratio (%), Echinochloa crusgalli [4]: 85%
- herbicidal activity inhibition ratio (%), Eclipta prostrata [5]: 80%
- herbicidal activity inhibition ratio (%), Setaria viridis [6]: 80%

SMILES: Cc1ccccc1-n1c(=O)c2cc(C(=O)C3=C(O)CCCC3=O)ccc2n(Cc2ccccc2)c1=O [Compound 79]
- herbicidal activity inhibition ratio (%), Abutilon theophrasti [1]: 0%
- herbicidal activity inhibition ratio (%), Amaranthus retroflexus [2]: 0%
- herbicidal activity inhibition ratio (%), Digitaria sanguinalis [3]: 0%
- herbicidal activity inhibition ratio (%), Echinochloa crusgalli [4]: 0%
- herbicidal activity inhibition ratio (%), Eclipta prostrata [5]: 0%
- herbicidal activity inhibition ratio (%), Setaria viridis [6]: 10%

SMILES: Cn1c(=O)n(-c2ccccc2F)c(=O)c2cc(C(=O)C3=C(O)CCCC3=O)ccc21 [Compound 12]
- herbicidal activity inhibition ratio (%), Abutilon theophrasti [1]: 85%
- herbicidal activity inhibition ratio (%), Amaranthus retroflexus [2]: 80%
- herbicidal activity inhibition ratio (%), Digitaria sanguinalis [3]: 80%
- herbicidal activity inhibition ratio (%), Echinochloa crusgalli [4]: 80%
- herbicidal activity inhibition ratio (%), Eclipta prostrata [5]: 80%
- herbicidal activity inhibition ratio (%), Setaria viridis [6]: 100%

SMILES: Cn1c(=O)n(-c2c(Cl)cccc2Cl)c(=O)c2cc(C(=O)C3=C(O)CC(C)(C)CC3=O)ccc21 [Compound 94]
- herbicidal activity inhibition ratio (%), Abutilon theophrasti [1]: 95%
- herbicidal activity inhibition ratio (%), Amaranthus retroflexus [2]: 95%
- herbicidal activity inhibition ratio (%), Digitaria sanguinalis [3]: 88%
- herbicidal activity inhibition ratio (%), Echinochloa crusgalli [4]: 93%
- herbicidal activity inhibition ratio (%), Eclipta prostrata [5]: 98%
- herbicidal activity inhibition ratio (%), Setaria viridis [6]: 95%

SMILES: Cc1ccccc1-n1c(=O)c2c(C)c(C(=O)C3=C(O)CCCC3=O)ccc2n(C)c1=O [Compound 82]
- herbicidal activity inhibition ratio (%), Abutilon theophrasti [1]: 100%
- herbicidal activity inhibition ratio (%), Amaranthus retroflexus [2]: 100%
- herbicidal activity inhibition ratio (%), Digitaria sanguinalis [3]: 100%
- herbicidal activity inhibition ratio (%), Echinochloa crusgalli [4]: 100%
- herbicidal activity inhibition ratio (%), Eclipta prostrata [5]: 100%
- herbicidal activity inhibition ratio (%), Setaria viridis [6]: 100%

SMILES: Cn1c(=O)n(-c2ccc([N+](=O)[O-])cc2)c(=O)c2cc(C(=O)C3=C(O)CC(C)(C)CC3=O)ccc21 [Compound 53]
- herbicidal activity inhibition ratio (%), Abutilon theophrasti [1]: 100%
- herbicidal activity inhibition ratio (%), Amaranthus retroflexus [2]: 80%
- herbicidal activity inhibition ratio (%), Digitaria sanguinalis [3]: 25%
- herbicidal activity inhibition ratio (%), Echinochloa crusgalli [4]: 0%
- herbicidal activity inhibition ratio (%), Eclipta prostrata [5]: 80%
- herbicidal activity inhibition ratio (%), Setaria viridis [6]: 80%

SMILES: Cn1c(=O)n(-c2cc(Cl)cc(Cl)c2)c(=O)c2cc(C(=O)C3=C(O)CCCC3=O)ccc21 [Compound 7]
- herbicidal activity inhibition ratio (%), Abutilon theophrasti [1]: 100%
- herbicidal activity inhibition ratio (%), Amaranthus retroflexus [2]: 90%
- herbicidal activity inhibition ratio (%), Digitaria sanguinalis [3]: 70%
- herbicidal activity inhibition ratio (%), Echinochloa crusgalli [4]: 80%
- herbicidal activity inhibition ratio (%), Eclipta prostrata [5]: 60%
- herbicidal activity inhibition ratio (%), Setaria viridis [6]: 80%

SMILES: Cn1c(=O)n(-c2cccc(Br)c2)c(=O)c2cc(C(=O)C3=C(O)CC(C)(C)CC3=O)ccc21 [Compound 24]
- herbicidal activity inhibition ratio (%), Abutilon theophrasti [1]: 93%
- herbicidal activity inhibition ratio (%), Amaranthus retroflexus [2]: 80%
- herbicidal activity inhibition ratio (%), Digitaria sanguinalis [3]: 60%
- herbicidal activity inhibition ratio (%), Echinochloa crusgalli [4]: 30%
- herbicidal activity inhibition ratio (%), Eclipta prostrata [5]: 83%
- herbicidal activity inhibition ratio (%), Setaria viridis [6]: 10%
